Data on six compounds can be found in paper PMC3855964, “Cysteine-10 on 17β-Hydroxysteroid Dehydrogenase 1 Has Stabilizing Interactions in the Cofactor Binding Region and Renders Sensitivity to Sulfhydryl Modifying Chemicals” (International Journal of Cell Biology, 2013).

Changes are numbered by the printed parent chain. Read-outs that look alike come from different tables or passages of the source.

One assay concerns the target T1, human 17β-HSD1 (Homo sapiens, UniProt P14061).
T1 construct: expressed in transfected cells; host or cells: HEK-293 (transient calcium phosphate transfection; cell lysates used)
T1 sequence (P14061 1-328): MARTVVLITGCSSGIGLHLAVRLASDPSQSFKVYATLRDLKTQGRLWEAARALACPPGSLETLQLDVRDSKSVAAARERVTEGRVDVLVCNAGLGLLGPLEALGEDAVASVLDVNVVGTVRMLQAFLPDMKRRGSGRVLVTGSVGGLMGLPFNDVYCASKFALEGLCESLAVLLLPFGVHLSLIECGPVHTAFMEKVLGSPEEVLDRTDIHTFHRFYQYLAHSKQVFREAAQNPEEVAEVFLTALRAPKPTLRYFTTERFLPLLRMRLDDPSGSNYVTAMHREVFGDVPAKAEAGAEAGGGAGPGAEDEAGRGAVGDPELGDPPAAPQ
As to the kind of experiment: 17β-HSD1 reductase activity (estrone to estradiol) in lysates of transfected HEK-293 cells. In kind it is biochemical. Conditions: for IC50 for 17β-HSD1 compared with those obtained for 11β-HSD2: simultaneous incubation with substrate and inhibitor, 11β-HSD2 values from ref 20. As for the experimental part: (§1) To determine 17β-HSD1 activity, HEK-293 cells were transfected by the calcium phosphate precipitation method. Cells were harvested 48 h after transfection, washed twice with phosphate-buffered saline (PBS), and centrifuged for 4 min at 150 ×g. Supernatants were removed and the cell pellets were quick-frozen in a dry ice-ethanol bath and stored at −80°C. The reductase activity of 17β-HSD1 was measured by incubation of cell lysates for 10 min at 37°C in the presence of 200 nM radiolabeled estrone and 400 μM NADPH in a reaction buffer containing 20% glycerol, 1 mM EDTA, and 50 mM potassium phosphate, pH 7.4. Inhibitors were diluted from stock solutions in dimethylsulfoxide (DMSO) and immediately used in the assays.
(§2) For determination of enzyme kinetics, estrone concentrations ranging from 10 to 800 nM were used. Data (mean ± SD) were obtained from three independent experiments and were calculated using the Data Analysis Toolbox (Elsevier MDL, Allschwil, Switzerland).

Assay [1] addresses T2, Cys^10Ser mutant 17β-HSD1 (Homo sapiens, UniProt P14061, C11S).
T2 construct: expressed in transfected cells; host or cells: HEK-293 (transient calcium phosphate transfection; cell lysates used)
T2 sequence (P14061 1-328 C11S): T1 sequence (P14061 1-328) with C11S
Nature of the assay: Cys^10Ser mutant 17β-HSD1 reductase activity (estrone to estradiol) in lysates of transfected HEK-293 cells. In kind it is biochemical. As to the method:
In order to facilitate detection, an octahistidine tag was added to the C-terminus of human 17β-HSD1 by PCR amplification using oligonucleotide primers containing the tag-coding sequence (forward primer 5′-[…]-3′, reverse primer 5′-[…]-3′). […] The substitution of Cys^10 to serine was introduced into the C-terminal histidine-tagged 17β-HSD1 cDNA in Bluescript vector by site-directed mutagenesis using the forward primer 5′-[…]-3′ and the reverse primer 5′-[…]-3′ according to the Quick Change mutagenesis kit (Stratagene, Amsterdam, The Netherlands), followed by subsequent recloning into pcDNA3.1 expression plasmid.
as §1, §2

Where [2] appears, read: simultaneous incubation of lysates with 200 nM estrone and inhibitor, 400 μM NADPH, 10 min, 37°C, read-out: IC50.

Turning to maneb, the IC50 on human 17β-HSD1 (setting [2]) amounted to 25 ± 3 µM. Also, the “IC50 for 17β-HSD1 compared with those obtained for 11β-HSD2” value at human 17β-HSD1 is reported as “about two orders of magnitude higher”.
In the case of `C[C@]12CC[C@@H]3c4ccc(O)cc4CC[C@H]3[C@@H]1CCC2=O` [estrone], the K m on human 17β-HSD1 (wild-type, estrone 10 to 800 nM, 400 μM NADPH) is 43 ± 6 nM; in assay [1] (Cys^10Ser mutant, estrone 10 to 800 nM, 400 μM NADPH), 65 ± 3 nM. Besides, the V max stood at 110 ± 5 nmol/h/mg at human 17β-HSD1 (wild-type, estrone 10 to 800 nM, 400 μM NADPH, normalized to protein expression) and 124 ± 3 nmol/h/mg in assay [1] (Cys^10Ser mutant, estrone 10 to 800 nM, 400 μM NADPH, normalized to protein expression).
Regarding `CN(C)C(=S)SSC(=S)N(C)C` [thiram], the IC50 at human 17β-HSD1 (setting [2]) was 21 ± 4 µM. Also, the “IC50 for 17β-HSD1 compared with those obtained for 11β-HSD2” value at human 17β-HSD1 was “about two orders of magnitude higher”.
Turning to `CCN1C(=O)C=CC1=O` [NEM, N-ethylmaleimide], the “17β-HSD1 activity after preincubation with inhibitor” value at human 17β-HSD1 (preincubation of lysates with 20 μM NEM for 1 h prior to the addition of estrone, data not shown) was “completely abolished”. For the same compound, the “effect of preincubation with NADPH on inhibition” value on human 17β-HSD1 (preincubation with NADPH for 15 min, NEM 60 μM, estrone 200 nM, NADPH 400 μM, concentration dependent) was “protected from inhibition”. For the same compound, the IC50 on human 17β-HSD1 (setting [2]) is 22 ± 6 µM. In assay [1] (cell lysates, data not shown), the “inhibition of wild-type enzyme relative to mutant Cys^10Ser” value was “approximately two times stronger”.
As to `S=C(S)NCCNC(=S)S` [zineb], on human 17β-HSD1, the half-inhibitory concentration (IC50) came to 24 ± 3 µM and the “IC50 for 17β-HSD1 compared with those obtained for 11β-HSD2” value is listed as “about two orders of magnitude higher”.
For the compound `CCN(CC)C(=S)SSC(=S)N(CC)CC` [disulfiram], at human 17β-HSD1 (setting [2]), the concentration for half-maximal inhibition (IC50) is 8 ± 1 µM. Moreover, the “IC50 for 17β-HSD1 compared with those obtained for 11β-HSD2” value against human 17β-HSD1 was “about two orders of magnitude higher”.

As a reminder, the IC50 is the concentration that gives 50% inhibition.
